In PubChem BioAssay AID2125 (NMMLSC, 2009):
Activity calls are given as the source filed them.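 Rule for the calls: active = combined score above 50, rising as EC50 falls below 10 µM and growth at top dose drops; inactive = the rest.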 Peptide text beside a SMILES is read from it. * marks the point of attachment. Cbz = O=C(OCc1ccccc1)*

What was measured:
Test in all cases: yeast strain panel proliferation effects – secondary panel, OD600, 26S proteasome disassembly project, profiling panel (AID 2125)
Conditions in all cases: S. cerevisiae strain panel, growth OD600, 6-8 h
YE4006 = tested on: YE4006
YE3965 = tested on: YE3965
YE4005 = tested on: YE4005
YE4010 = tested on: YE4010
YE4012 = tested on: YE4012
YE3962 = tested on: YE3962
YE3963 = tested on: YE3963
YE3955 = tested on: YE3955
YE3957 = tested on: YE3957
[1] = at 100 µM, stronger effect = lower value

CC(=O)N1C(=O)C(=C2C=C(C)OC(C)=C2)c2ccccc21
EC50 (YE4006): 36 µM (inactive) | percent response (growth) (YE3965; [1]): 34.3% (inactive) | percent response (growth) (YE4005; [1]): 70.5% (inactive) | EC50 (YE4010): 130 nM | percent response (growth) (YE4012; [1]): 96.9% (inactive) | EC50 (YE3962): 160 nM | percent response (growth) (YE3963; [1]): 63.5% (inactive) | percent response (growth) (YE3955; [1]): 70.6% (inactive) | percent response (growth) (YE3957; [1]): 100% (inactive)

CC(C)C[C@@H](C=O)NC(=O)[C@H](CC(C)C)NC(=O)[C@H](CC(C)C)NC(=O)OCc1ccccc1 (Cbz-Leu-Leu-Leu-aldehyde)
percent response (growth) (YE4006; [1]): 63.7% (inactive) | EC50 (YE3965): 1050 nM | EC50 (YE4005): 1240 nM | percent response (growth) (YE4010; [1]): 75.5% (inactive) | EC50 (YE4012): 1.55 mM (inactive) | percent response (growth) (YE3962; [1]): 47.5% (inactive) | EC50 (YE3963): 930 nM | EC50 (YE3955): 900 nM | EC50 (YE3957): 2860 nM
